Patent US20260297081A1, “COMPOUNDS AND METHODS OF TREATING CANCERS” (Cullgen Inc., priority 2023, published 2026)

The compounds below were run on MCF7 cells (assay: Anti-proliferation (viability) of MCF7 cells (Table 7, FIG. 2B)). Conditions: Homo sapiens, MCF7, MCF7 cells, 3-6 days, 10-point serial dilution; read-out: GI IC50 in MCF-7.
Assay type: cell-based
For CC(=O)c1c(C)c2cnc(Nc3ccc(N4CCN(CC(=O)NC5CC6(C5)CC(Nc5nc(OC(C)C)ccc5C(=O)Nc5cn(C)c(C7CC7)n5)C6)CC4)cn3)nc2n(C2CCCC2)c1=O (stereo not shown) [CPD-292, 2-((6-(2-(4-(6-((6-acetyl-8-cyclopentyl-5-methyl-7-oxo-7,8-dihydropyrido[2,3-d]pyrimidin-2-yl)amino)pyridin-3-yl)piperazin-1-yl)acetamido)spiro[3.3]heptan-2-yl)amino)-N-(2-cyclopropyl-1-methyl-1H-imidazol-4-yl)-6-isopropoxynicotinamide], the IC50 was over 100 nM.
CCNc1ccc(C(=O)Nc2cn(C)c(C3CC3)n2)c(NC2CC3(CC(NC(=O)CN4CCN(c5ccc(Nc6ncc7c(C)c(C(C)=O)c(=O)n(C8CCCC8)c7n6)nc5)CC4)C3)C2)n1 (stereo not shown) [CPD-293, 2-((6-(2-(4-(6-((6-acetyl-8-cyclopentyl-5-methyl-7-oxo-7,8-dihydropyrido[2,3-d]pyrimidin-2-yl)amino)pyridin-3-yl)piperazin-1-yl)acetamido)spiro[3.3]heptan-2-yl)amino)-N-(2-cyclopropyl-1-methyl-1H-imidazol-4-yl)-6-(ethylamino)nicotinamide] showed an IC50 of over 100 nM.
[2H]C([2H])([2H])Nc1ccc(C(=O)Nc2cc(C)on2)c(NC2CCC(NC(=O)CN3CCN(c4ccc(Nc5ncc6c(C)c(C(C)=O)c(=O)n(C7CCCC7)c6n5)nc4)CC3)C2)n1 (stereo not shown) [CPD-294, 2-((3-(2-(4-(6-((6-acetyl-8-cyclopentyl-5-methyl-7-oxo-7,8-dihydropyrido[2,3-d]pyrimidin-2-yl)amino)pyridin-3-yl)piperazin-1-yl)acetamido)cyclopentyl)amino)-6-((methyl-d3)amino)-N-(5-methylisoxazol-3-yl)nicotinamide] gave an IC50 of over 100 nM.
CC(=O)c1c(C)c2cnc(Nc3ccc(N4CCN(CC(=O)NC5CCC(Nc6nc(NC(C)C)ccc6C(=O)Nc6cc(C)on6)C5)CC4)cn3)nc2n(C2CCCC2)c1=O (stereo not shown) [CPD-295, 2-((3-(2-(4-(6-((6-acetyl-8-cyclopentyl-5-methyl-7-oxo-7,8-dihydropyrido[2,3-d]pyrimidin-2-yl)amino)pyridin-3-yl)piperazin-1-yl)acetamido)cyclopentyl)amino)-6-(isopropylamino)-N-(5-methylisoxazol-3-yl)nicotinamide] gave an IC50 of over 100 nM.
Work on CNc1ccc(C(=O)Nc2cn(C)c(C3CCCC3)n2)c(NC2CC3(CC(NC(=O)CN4CCN(c5ccc(Nc6ncc7c(C)c(C(C)=O)c(=O)n(C8CCCC8)c7n6)nc5)CC4)C3)C2)n1 (stereo not shown) [CPD-296, 2-((6-(2-(4-(6-((6-acetyl-8-cyclopentyl-5-methyl-7-oxo-7,8-dihydropyrido[2,3-d]pyrimidin-2-yl)amino)pyridin-3-yl)piperazin-1-yl)acetamido)spiro[3.3]heptan-2-yl)amino)-N-(2-cyclopentyl-1-methyl-1H-imidazol-4-yl)-6-(methylamino)nicotinamide] yielded an IC50 of over 100 nM.
For CNc1ccc(C(=O)Nc2cc(C)n(C3CCC3)n2)c(NC2CC3(CC(NC(=O)CN4CCN(c5ccc(Nc6ncc7c(C)c(C(C)=O)c(=O)n(C8CCCC8)c7n6)nc5)CC4)C3)C2)n1 (stereo not shown) [CPD-297, 2-((6-(2-(4-(6-((6-acetyl-8-cyclopentyl-5-methyl-7-oxo-7,8-dihydropyrido[2,3-d]pyrimidin-2-yl)amino)pyridin-3-yl)piperazin-1-yl)acetamido)spiro[3.3]heptan-2-yl)amino)-N-(1-cyclobutyl-5-methyl-1H-pyrazol-3-yl)-6-(methylamino)nicotinamide], the IC50 was over 100 nM.
CCCNc1ccc(C(=O)Nc2cn(C)c(C3CC3)n2)c(NC2CC3(CC(NC(=O)CN4CCN(c5ccc(Nc6ncc7c(C)c(C(C)=O)c(=O)n(C8CCCC8)c7n6)nc5)CC4)C3)C2)n1 (stereo not shown) [CPD-298, 2-((6-(2-(4-(6-((6-acetyl-8-cyclopentyl-5-methyl-7-oxo-7,8-dihydropyrido[2,3-d]pyrimidin-2-yl)amino)pyridin-3-yl)piperazin-1-yl)acetamido)spiro[3.3]heptan-2-yl)amino)-N-(2-cyclopropyl-1-methyl-1H-imidazol-4-yl)-6-(propylamino)nicotinamide] was tested, and the IC50 was over 100 nM.
CNc1ccc(C(=O)Nc2ccc(N(C)C)nn2)c(NC2CCN(C(=O)CNC3CCN(c4ccc(Nc5ncc6c(C)c(C(C)=O)c(=O)n(C7CCCC7)c6n5)nc4)CC3)CC2)n1 [CPD-299, 2-((1-((1-(6-((6-acetyl-8-cyclopentyl-5-methyl-7-oxo-7,8-dihydropyrido[2,3-d]pyrimidin-2-yl)amino)pyridin-3-yl)piperidin-4-yl)glycyl)piperidin-4-yl)amino)-N-(6-(dimethylamino)pyridazin-3-yl)-6-(methylamino)nicotinamide] showed an IC50 of under 50 nM.
For CC(=O)c1c(C)c2cnc(Nc3ccc(N4CCN(CCC(=O)N5CC(Nc6nc(NC(C)C)ccc6C(=O)Nc6ccc(N(C)C)nn6)C5)CC4)cn3)nc2n(C2CCCC2)c1=O [CPD-303, 2-((1-(3-(4-(6-((6-acetyl-8-cyclopentyl-5-methyl-7-oxo-7,8-dihydropyrido[2,3-d]pyrimidin-2-yl)amino)pyridin-3-yl)piperazin-1-yl)propanoyl)azetidin-3-yl)amino)-N-(6-(dimethylamino)pyridazin-3-yl)-6-(isopropylamino)nicotinamide], the IC50 was under 50 nM.
Compound CC(=O)c1c(C)c2cnc(Nc3ccc(N4CCN(CCC(=O)N5CC(Nc6nc(NC(C)C)ccc6C(=O)Nc6cn(C)c(C7CC7)n6)C5)CC4)cn3)nc2n(C2CCCC2)c1=O [CPD-304, 2-((1-(3-(4-(6-((6-acetyl-8-cyclopentyl-5-methyl-7-oxo-7,8-dihydropyrido[2,3-d]pyrimidin-2-yl)amino)pyridin-3-yl)piperazin-1-yl)propanoyl)azetidin-3-yl)amino)-N-(2-cyclopropyl-1-methyl-1H-imidazol-4-yl)-6-(isopropylamino)nicotinamide] has an IC50 of over 100 nM.
In the case of [2H]C([2H])([2H])Nc1ccc(C(=O)Nc2cn(C)c(C3CC3)n2)c(NC2CC(NC(=O)CN3CCN(c4ccc(Nc5ncc6c(C)c(C(C)=O)c(=O)n(C7CCCC7)c6n5)nc4)CC3)C2)n1 (stereo not shown) [CPD-307, 2-((3-(2-(4-(6-((6-acetyl-8-cyclopentyl-5-methyl-7-oxo-7,8-dihydropyrido[2,3-d]pyrimidin-2-yl)amino)pyridin-3-yl)piperazin-1-yl)acetamido)cyclobutyl)amino)-N-(2-cyclopropyl-1-methyl-1H-imidazol-4-yl)-6-((methyl-d3)amino)nicotinamide], the IC50 is reported as over 100 nM.
For CCc1nc(NC(=O)c2ccc(NC)nc2NC2CC3(CC(NC(=O)CN4CCN(c5ccc(Nc6ncc7c(C)c(C(C)=O)c(=O)n(C8CCCC8)c7n6)nc5)CC4)C3)C2)cn1C (stereo not shown) [CPD-308, 2-((6-(2-(4-(6-((6-acetyl-8-cyclopentyl-5-methyl-7-oxo-7,8-dihydropyrido[2,3-d]pyrimidin-2-yl)amino)pyridin-3-yl)piperazin-1-yl)acetamido)spiro[3.3]heptan-2-yl)amino)-N-(2-ethyl-1-methyl-1H-imidazol-4-yl)-6-(methylamino)nicotinamide], the IC50 was over 100 nM.
CCCc1nc(NC(=O)c2ccc(NC)nc2NC2CC3(CC(NC(=O)CN4CCN(c5ccc(Nc6ncc7c(C)c(C(C)=O)c(=O)n(C8CCCC8)c7n6)nc5)CC4)C3)C2)cn1C (stereo not shown) [CPD-309, 2-((6-(2-(4-(6-((6-acetyl-8-cyclopentyl-5-methyl-7-oxo-7,8-dihydropyrido[2,3-d]pyrimidin-2-yl)amino)pyridin-3-yl)piperazin-1-yl)acetamido)spiro[3.3]heptan-2-yl)amino)-N-(1-methyl-2-propyl-1H-imidazol-4-yl)-6-(methylamino)nicotinamide] showed an IC50 of over 100 nM.
